For experiment [1], the system named is CFTR−/− mice. The experiment can be described thus: Fatty acid levels (GC/MS) in pancreas and lung cells of CFTR−/− mice fed n-3 fatty acids. It counts as in vivo, mouse. The following applies: CFTR-/- mice, 40 mg/day for one week (fish oil: dose equivalent to 40 mg DHA, 60 mg EPA, 15 mg LNA); mean ± S.D. The procedure:
Mouse pancreatic acinar and lung cell suspensions were prepared from wild type (n=3) and CFTR−/− mice (n=3) by enzymatic and mechanical dissociation. In addition, brain, kidney, heart, spleen, and blood were sonicated in 0.3M sucrose buffer. Membrane lipids were extracted from cell and organ preparations with 20 volumes of chloroform-methanol 2:1 (v/v), transmethylated with 0.5 mL of 0.1 N methanolic-NaOH/BF3 reagent, and the resulting fatty acid methyl esters analyzed by gas chromatography/mass spectrometry (GC/MS). In a different set of experiments, lipids were fractionated by aminopropyl column chromatography into triglycerides, cholesterol esters, and phosphoglycerides and the fatty acid composition of each lipid class determined by a combination of enzymatic hydrolysis, transmethylation, and GC/MS.
Cystic fibrosis (UNC strain) and wild type mice (12-20 grams body weight) were fed with a complete liquid enteral formulation (Peptamen™, Nestle Clinical Nutrition, Inc.) supplemented with different quantities of the DHA-containing formulation Neuromins (Nature's Way Products Inc., Springville, Utah). DHA content in the Neuromins formulation was 100 mg per 500 mg of formulation. Mice were fed once a day at about 11 a.m., seven days a week with 20 ml of Peptamen™ supplemented with the various amounts of either Neuramins, free DHA (Sigma Chemical Co., MO) or DHA-ethyl ester (Nu-Check-Prep, Inc. MN) ranging from 0.5 mg/day of DHA to 40 mg/day of DHA.
Lung and acinar cells were isolated from a CF mouse fed with DHA formula (mouse-1, 40 mg/day DHA). The pellets (0.5 mL for pancreas cell homogenate and 0.6 mL for lung cell homogenate) were extracted with 3 mL of chloroform-methanol 2:1 (v/v). The resulting emulsion was vortexed, centrifuged at 800 g for 3 min., and the lower phase aspirated. The residual upper phase was partitioned again with 3 mL of chloroform-methanol 2:1 (v/v), the lower phase aspirated and both lower phases combined. Fractions were evaporated to dryness, processed for fatty acid methyl esters (FAME) and were analyzed by GC-MS analysis. Aliquots of 10 μL of 17:0 methyl ester solution in hexane [1 μg/μL] were added to the samples after methylation.
(§1) Lung and acinar cells were isolated from a CF and a wild-type (WT) mouse fed with DHA formula. The pellets (0.5 mL for pancreas cell homogenate and 0.6 mL for lung cell homogenate) were extracted with 3 mL of chloroform-methanol 2:1 (v/v). The resulting emulsion was vortexed, centrifuged at 800 g for 3 min., and the lower phase aspirated. The residual upper phase was partitioned again with 3 mL of chloroform-methanol 2:1 (v/v), the lower phase aspirated and both lower phases combined. Fractions were evaporated to dryness, processed for FAME and analyzed by GC-MS. Aliquots of 20 μL of 17:0 in chloroform-methanol 2:1 (v/v) were added to the samples before methylation.
as §1, with “from” for “from a”, “mice” for “and a wild-type (WT) mouse”, “different doses of DHA, i.e., 0.5 mg/day, 2.0 mg/day, 10 mg/day or 40 mg/day DHA.” for “DHA formula.”, “pellets” for “pellets (0.5 mL for pancreas cell homogenate and 0.6 mL for lung cell homogenate)”, “30” for “20”
CFTR−/− mice were prepared as described in Example 1. Both CFTR−/− mice and wild type mice were euthanized with carbon dioxide, and cell suspensions from pancreas and lung isolated.

Experiment [2] deals with CFTR−/− mice. The description is as above. It counts as in vivo, mouse. Particulars: CFTR-/- mice, 40 mg/day for one week (fish oil: dose equivalent to 40 mg DHA, 60 mg EPA, 15 mg LNA); mean ± S.D. The source holds these as a separate data set.

Turning to `CC/C=C\C/C=C\C/C=C\C/C=C\C/C=C\CCCC(=O)O` [EPA, Eicosapentaenoic acid, reference compound], the “DHA level in pancreas” value with CFTR−/− mice [1] was found to be 2.2 ± 0.4 nmol/mg. The “AA level in pancreas” value in the experiment on CFTR−/− mice [2] is 5.1 ± 0.3 nmol/mg.

Source of the values: patent US20040127567A1, “Novel methods for treating disorders in which docosahexaenoic acid (DHA) levels are affected” (Beth Israel Deaconess Medical Center, Inc., priority 1998, published 2004).
